Measurements taken from PMC7351026, “Serum Half-Lives for Short- and Long-Chain Perfluoroalkyl Acids after Ceasing Exposure from Drinking Water Contaminated by Firefighting Foam” (Environmental Health Perspectives, 2020).

What was measured:
Serum/water ratio = type: in vivo, human; conditions: median serum level of first samples (26 employees) divided by airport drinking-water level
Method: The ratio of serum and water concentration for each PFAS (serum/water ratio) was calculated based on median serum level in the first serum sample obtained from all 26 airport employees divided by the drinking-water concentration. This ratio is an indicator of PFAS accumulation in body.

[1] = Urine/serum ratio in paired samples; type: in vivo, human; conditions: mean of four paired samplings per subject, 17 airport employees
Method: (§1) Urinary PFAS concentrations were specific-gravity adjusted. The ratio of urine and serum concentration for each PFAS (urine/serum ratio) at each sampling was calculated based on PFAS concentrations in paired serum and urine samples from 17 employees. Then the personal average urine/serum ratio was calculated using the mean value of repeated samplings for each employee.

[2] = PFAS levels in urine samples of airport employees, specific-gravity adjusted (LC/MS/MS); type: in vivo, human
Method: Only one employee provided a single urine sample. […] All employees provided written informed consent.
The samples were thawed 1–2 h, then mixed by vortex shaker and manual turning. […] For the urine samples, 50μL urine was mixed with 25μL of methanol and 25μL of a 50% acetonitrile solution containing isotopically labeled internal standards (see Table S1). Then samples were shaken vigorously for 30 min and centrifuged at 3,000×g for 10 min at room temperature.
Aliquots of 20μL of the sample were analyzed using LC/MS/MS. […] The analysis was performed in negative ion mode. The ion source temperature was at 350°C.
as §1

[3] = Population average serum elimination rate and half-life (linear mixed model, one compartment, first-order); conditions: population average; for half-life: human, serum, oral, Half-life (95% CI)
In short: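 Log-transformed serum PFAS fitted with a linear mixed model (random intercept only; age and sex as covariates), assuming one-compartment first-order elimination. Time counted in days from clean-water supply to first sampling. k is the negative average slope; half-life = ln2/k; sensitivity run after subtracting reference-population median background.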

[4] = general Swedish population (Ronneby, 106 Swedes) with high exposure through drinking water, 2 y follow-up from 6 months after clean water; ref Li et al. 2018; cited from earlier work
[5] = Individual serum elimination rate and half-life (linear regression per employee); conditions: individual estimate; for half-life: human, serum, oral, HL (half-life)
In short: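 One-compartment, first-order model: for each employee and PFAS, the slope β of log serum concentration versus elapsed days (from clean water supply, over five samplings) gave k = −β and half-life = ln2/k. A positive slope left the half-life undetermined.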

[6] = 2nd sampling (October 2018), count 17
[7] = 3rd sampling (November, 2018), count 16
[8] = 4th sampling (December 2018), count 14
[9] = 5th sampling (January 2019), count 12
[10] = model with original serum levels, age and sex as covariates
[11] = model with serum levels after subtraction of background exposure (sensitivity analysis)

## O=S(=O)(O)C(F)(F)C(F)(F)C(F)(F)C(F)(F)C(F)(F)C(F)(F)F [PFHxS, perfluorohexane sulfonic acid]
Serum/water ratio
  Serum/water ratio: 107
[1]
  Personal average urine/serum ratio, median (range): 0.00093 (0.0006–0.0018)
[2]; [6]
  Specific gravity adjusted urinary level, 25 percentile: 0.06 ng/mL
  Specific gravity adjusted urinary level, 75 percentile: 0.13 ng/mL
  Specific gravity adjusted urinary level, Max: 0.28 ng/mL
  Specific gravity adjusted urinary level, Median: 0.09 ng/mL
  Specific gravity adjusted urinary level, Min: 0.03 ng/mL
[2]; [7]
  Specific gravity adjusted urinary level, 25 percentile: 0.05 ng/mL
  Specific gravity adjusted urinary level, 75 percentile: 0.13 ng/mL
  Specific gravity adjusted urinary level, Max: 0.26 ng/mL
  Specific gravity adjusted urinary level, Median: 0.07 ng/mL
  Specific gravity adjusted urinary level, Min: 0.03 ng/mL
[2]; [8]
  Specific gravity adjusted urinary level, 25 percentile: 0.05 ng/mL
  Specific gravity adjusted urinary level, 75 percentile: 0.17 ng/mL
  Specific gravity adjusted urinary level, Max: 0.73 ng/mL
  Specific gravity adjusted urinary level, Median: 0.12 ng/mL
  Specific gravity adjusted urinary level, Min: 0.04 ng/mL
[2]; [9]
  Specific gravity adjusted urinary level, 25 percentile: 0.07 ng/mL
  Specific gravity adjusted urinary level, 75 percentile: 0.11 ng/mL
  Specific gravity adjusted urinary level, Max: 0.31 ng/mL
  Specific gravity adjusted urinary level, Median: 0.08 ng/mL
  Specific gravity adjusted urinary level, Min: 0.06 ng/mL
[2]; second to fifth samplings, 17 airport employees
  Specific gravity adjusted urine level, median (range): 0.092 (0.025–0.73) ng/mL
[3]; [10]
  half-life: 1040 days
  Constant elimination rate (95% CI): 0.24 (0.16, 0.33) yearly
[3]; [11]
  half-life: 1040 days
  Constant elimination rate (95% CI): 0.24 (0.16, 0.33) yearly
[4]
  Average half-life: 5.3 y
[5]; subject 1, 5 samples
  half-life: 1280 days
  Elimination rate: 0.2 yearly
[5]; subject 2, 5 samples
  half-life: 730 days
  Elimination rate: 0.3 yearly
[5]; subject 3, 5 samples
  half-life: 548 days
  Elimination rate: 0.5 yearly
[5]; subject 4, 5 samples
  half-life: 3510 days
  Elimination rate: 0.1 yearly
[5]; subject 5, 5 samples
  half-life: 1720 days
  Elimination rate: 0.1 yearly
[5]; subject 7, 5 samples
  half-life: 840 days
  Elimination rate: 0.3 yearly
[5]; subject 10, 5 samples
  half-life: 694 days
  Elimination rate: 0.4 yearly
[5]; subject 11, 5 samples
  half-life: 1100 days
  Elimination rate: 0.2 yearly
[5]; subject 12, 5 samples
  half-life: 584 days
  Elimination rate: 0.4 yearly
[5]; subject 13, 5 samples
  half-life: 511 days
  Elimination rate: 0.5 yearly
[5]; subject 14, 4 samples
  half-life: 438 days
  Elimination rate: 0.6 yearly
[5]; subject 15, 5 samples
  half-life: 804 days
  Elimination rate: 0.3 yearly
[5]; subject 16, 5 samples
  half-life: 6940 days
  Elimination rate: 0.04 yearly
[5]; subject 17, 5 samples
  half-life: 584 days
  Elimination rate: 0.4 yearly
[5]; subject 6, 4 samples
  Elimination rate: −0.1 yearly
[5]; subject 8, 5 samples
  Elimination rate: −0.01 yearly
[5]; subject 9, 5 samples
  Elimination rate: −0.04 yearly
